This is an account of results in article PMC8237267 (Journal of Medicinal Chemistry, 2021).

Entries after “also recorded” stand apart in the source; their conditions may differ. Some results are limits rather than exact numbers.

One series has as its system CD-1 mice. As to the kind of experiment: Maximum tolerated dose / 5 day toxicity study. It is filed as in vivo. To be noted: 20 mg/kg P.O., daily for 5 days, listed as KT-531, 20 mg/kg. The procedure: Acute toxicity of the lead inhibitors was studied using 4–12 week old male CD-1 mice (Charles River). A concentration of 20 mg/kg of inhibitor via oral gavage was administered to mice (n = 5) over 5 days. The vehicle consisted of 10% DMSO, 5% Cremophor EL, and 85% saline. Mice were monitored daily for toxicity effects including excessive changes in weight and hair as well as changes to posture and inactivity. All mouse studies were approved by the Local Animal Care Committee at the University of Toronto and Office of Laboratory Animal Welfare (OLAW). The mice were housed in Tecniplast Blueline ventilated cages with environmental enrichment and fed a Teklad 2019 diet supplemented with municipal water.

In series [1] the target is T1, HDAC6 (Homo sapiens, UniProt Q9UBN7).
T1 sequence (Q9UBN7 1-1215): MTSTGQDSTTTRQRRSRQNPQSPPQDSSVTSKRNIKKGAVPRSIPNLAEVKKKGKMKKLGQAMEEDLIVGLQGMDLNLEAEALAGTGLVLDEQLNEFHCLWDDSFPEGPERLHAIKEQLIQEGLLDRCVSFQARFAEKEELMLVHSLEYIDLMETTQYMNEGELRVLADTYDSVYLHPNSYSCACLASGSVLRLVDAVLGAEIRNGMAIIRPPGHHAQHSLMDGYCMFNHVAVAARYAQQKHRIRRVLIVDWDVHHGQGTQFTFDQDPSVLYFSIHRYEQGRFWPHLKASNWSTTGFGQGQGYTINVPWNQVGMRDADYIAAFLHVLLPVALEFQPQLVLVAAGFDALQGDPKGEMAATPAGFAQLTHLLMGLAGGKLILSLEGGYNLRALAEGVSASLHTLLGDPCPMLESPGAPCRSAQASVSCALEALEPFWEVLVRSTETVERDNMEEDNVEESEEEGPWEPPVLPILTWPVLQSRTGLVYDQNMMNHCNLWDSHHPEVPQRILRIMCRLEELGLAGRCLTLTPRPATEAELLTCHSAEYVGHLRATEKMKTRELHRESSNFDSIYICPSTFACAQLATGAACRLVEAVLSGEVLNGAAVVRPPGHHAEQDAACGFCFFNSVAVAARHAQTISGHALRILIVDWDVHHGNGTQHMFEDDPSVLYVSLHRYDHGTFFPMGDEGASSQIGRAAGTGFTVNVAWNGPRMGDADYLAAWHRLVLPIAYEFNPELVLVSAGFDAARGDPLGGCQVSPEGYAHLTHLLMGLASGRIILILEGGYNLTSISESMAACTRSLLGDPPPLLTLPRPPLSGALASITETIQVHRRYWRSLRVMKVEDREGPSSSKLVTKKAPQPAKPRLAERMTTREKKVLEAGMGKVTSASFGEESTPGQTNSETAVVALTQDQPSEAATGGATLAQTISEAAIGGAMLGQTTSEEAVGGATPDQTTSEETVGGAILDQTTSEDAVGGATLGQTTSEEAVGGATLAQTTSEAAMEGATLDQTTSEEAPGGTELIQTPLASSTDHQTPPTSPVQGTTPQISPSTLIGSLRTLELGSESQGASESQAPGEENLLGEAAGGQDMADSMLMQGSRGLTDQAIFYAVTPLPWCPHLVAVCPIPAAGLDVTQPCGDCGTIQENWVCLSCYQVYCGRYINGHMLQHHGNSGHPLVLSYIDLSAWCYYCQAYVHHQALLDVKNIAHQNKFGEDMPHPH
As to the kind of experiment: Time-dependent IC50 assay with preincubation (0-6 h). It is filed as biochemical. Conditions: 6 h time-dependent assay. On the procedure: The binding kinetics profile of KT-531 was also investigated by determining the association (kon)/dissociation (koff) rates as well as residence time parameters. The in vitro residence time (1/kobs) for the KT-531–HDAC6 complex was determined to be 23.18 min, as compared to 10.72 min for 1.

In the next series the target is T2, HDAC3 (Homo sapiens, UniProt O15379).
T2 construct: The full-length human HDACs were recombinantly expressed and purified from SF9 insect cells; host or cells: SF9 insect cells
In words: HDAC EMSA activity assay (Nanosyn). Type of series: biochemical. To be noted: read-out: IC50 HDAC3.

In series [2] the target is T1, HDAC6. As to the kind of experiment: Determination of Ki (Kon kinetics). It is filed as biochemical. To be noted: time-dependent inhibition Kon experiment. On the procedure:
Serial dilutions of compound were mixed with 3 nM HDAC6 enzyme and substrate peptide in assay buffer. Progress curves were acquired without preincubation for ∼5 h on a Labchip3000 instrument. Progress curves in the presence of compound were fit with the following equation: ((A + (Vs × x)) + (((Vo – Vs) × (1 – exp((−1 × Kobs) × t)))/Kobs)). To determine observed rate of inhibition, Vo was locked to that in control (Vi, DMSO only). Fractional steady state velocity (Vs/Vi) and Kobs values were plotted against [compound] to determine Ki and residence time.

Series [3] can be described thus: In vivo PK study in CD-1 male mice. Conditions: mouse, plasma, CD-1 mice, IP, 20 mg/kg.
For a further series, the target named is T3, HDAC8 (Homo sapiens, UniProt Q9BY41).
T3 construct: The full-length human HDACs were recombinantly expressed and purified from SF9 insect cells; host or cells: SF9 insect cells
T3 sequence (Q9BY41 1-377): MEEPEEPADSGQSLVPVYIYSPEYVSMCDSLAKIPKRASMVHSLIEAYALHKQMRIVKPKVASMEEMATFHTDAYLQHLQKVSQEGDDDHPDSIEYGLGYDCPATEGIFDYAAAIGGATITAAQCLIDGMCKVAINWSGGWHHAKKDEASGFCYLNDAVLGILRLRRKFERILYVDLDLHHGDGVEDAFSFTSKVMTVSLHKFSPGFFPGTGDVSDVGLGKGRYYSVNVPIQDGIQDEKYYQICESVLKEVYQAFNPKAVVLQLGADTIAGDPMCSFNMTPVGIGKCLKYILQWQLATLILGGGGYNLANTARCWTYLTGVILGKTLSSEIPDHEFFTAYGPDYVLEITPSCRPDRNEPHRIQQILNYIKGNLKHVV
In words: HDAC EMSA activity assay (Nanosyn). Type of series: biochemical. Conditions: EMSA (Nanosyn); read-out: IC50 HDAC8. Background: Mobility shift assays separate free from complexed probe on a gel.

A short description of series [4]: Permeability by lipid-PAMPA. Type of series: in vitro ADME. To be noted: lecithin/dodecane, PBS pH 7.4, 16 h. The procedure: A 1.8% solution (w/v) of lecithin in dodecane was added to each acceptor plate well (top), followed by application of the artificial membrane and addition of 300 μL of PBS (pH 7.4) solution to each well of the acceptor plate. Compounds were added to the donor plate and incubated at 25 °C, 60 rpm for 16 h. After incubation, aliquots of 50 μL from each acceptor well and donor plate were transferred into a 96-well plate, vortexed at 750 rpm for 100 s and centrifuged at 3220g for 20 min. Compound concentrations and effective permeability (Pe) were determined by LC/MS/MS.

T2 sequence (O15379 whole entry): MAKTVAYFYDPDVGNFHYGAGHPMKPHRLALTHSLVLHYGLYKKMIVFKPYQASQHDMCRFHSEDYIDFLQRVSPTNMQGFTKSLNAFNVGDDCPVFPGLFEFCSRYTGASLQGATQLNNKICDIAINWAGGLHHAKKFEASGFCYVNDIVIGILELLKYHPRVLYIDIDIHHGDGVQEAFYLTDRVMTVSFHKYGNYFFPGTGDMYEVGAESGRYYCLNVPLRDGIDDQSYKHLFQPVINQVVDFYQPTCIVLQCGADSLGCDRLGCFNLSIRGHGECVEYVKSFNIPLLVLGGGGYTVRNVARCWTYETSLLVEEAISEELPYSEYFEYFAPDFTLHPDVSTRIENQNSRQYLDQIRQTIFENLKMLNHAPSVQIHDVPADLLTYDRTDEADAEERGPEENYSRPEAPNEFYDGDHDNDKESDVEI
T2 sequence (Q9Y618 395-489 partner limits assumed): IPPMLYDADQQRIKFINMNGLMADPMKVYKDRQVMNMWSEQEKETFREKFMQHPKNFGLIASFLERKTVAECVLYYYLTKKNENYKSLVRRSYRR

Turning to `O=C(NO)c1ccc(CN(C2CC2)S(=O)(=O)c2cc(F)c(F)c(F)c2F)cc1` [Compound 14, 4-(((N-Cyclopropyl-2,3,4,5-tetrafluorophenyl)sulfonamido)methyl)-N-hydroxybenzamide], the “in vivo toxicity” value with CD-1 mice is on record as “no visible signs of toxicity or weight loss; also recorded: no observable toxicity in vivo”. For the same compound, on HDAC6 [1], the “reversibility of binding (IC50 over preincubation time)” value is given as “unchanged IC50 values”. The IC50 – broadly, the midpoint of a concentration-inhibition curve – on HDAC3 was over 1 µM; at HDAC8, 0.334 µM. The Ki on HDAC6 [2] is 0.0173 µM. Besides, the Cmax (in general, the highest concentration seen after dosing) at 24 h in series [3] was 493 ng/mL. Also, in series [3], the MRT (usually the average time that molecules of a dose stay in the body) at 24 h was determined as 2.1 ± 0.5 h. For the same compound, the AUC(0-t) at 24 h in series [3] (read-out: In vivo AUClast (overall exposure)) came out at 1580 ng·h/mL. In series [3] (read-out: In vivo t1/2), the half-life was determined as 1.05 h. For the same compound, the “PAMPA -Log Pe” value in series [4] (listed as 14 (KT-531)) amounted to 5.44 ± 0.06; in series [4] (listed as KT-531) it was 5.44.
